Measurements reported in patent US12528826B2, “[1,4]oxazepino[2,3-c]quinolinone derivatives as BCL6 inhibitors” (Cancer Research Technology Limited, priority 2019, dated 2026).

How the values were obtained:
[1] = test system: GC B cells and non-GC B cells in spleen cell cultures; test: Mouse splenocyte flow cytometry immunology experiments; assay type: cell-based
Experimental: Male C57BL/6 mice were immunised in both flanks subcutaneously with CFA (100 μl of 4 mg/ml CFA). On day 8 the animals were terminated, spleens harvested and processed to single cell suspensions.
Splenocytes were resuspended in complete media (RPMI 1640+10% foetal calf serum, supplemented with 4 mM L-glutamine, 100 U/ml-100 μg/ml) penicillin/streptomycin and 50 μM B-mercaptoethanol (Gibco)). The cells were activated for 48 hours with 2 μg/ml αCD40 (ThermoFisher)+[…] IL-4 (Bio-techne) at 37° C. in a humidified CO2 incubator. Example 4b was added at the same time as activation in an 8-point dose titration. Following the culture period, cells were collected, washed with PBS (Gibco) and selected wells were counted using a LUNA™ Counter (Logos Biosystems).
Harvested cells were washed in PBS (Gibco) and stained with Invitrogen™ eBioscience™ Fixable Viability Dye eFluor 780 (Fisher scientific), then FcR blocked (Miltenyi Biotec) and stained with surface receptor antibodies (see Table 3 below). Cells were then washed in flow cytometry buffer (PBS supplemented with 1% BSA and 0.05% azide) and the secondary streptavidin was added. Cells were then washed, fixed and permeabilized in Transcription factor staining buffer (Fisher scientific); according to the manufacturer's instructions. Intracellular antibodies were then added to the samples. Following final washes, cells were fixed in 1% PFA and acquired on a BD LSR Fortessa™ (BD Bioscience). All analysis was carried out using FlowJo software v10.
In order to test the hypothesis that degradation or inhibition of Bcl6 may be able to modulate primary cells of the immune system, resulting in a decrease in their potential to generate autoantibodies, the above experiment was performed. Mice were immunised in order to drive the generation of germinal centre (GC) B cells. Spleens were then cultured in the presence or absence of a Bcl6 inhibitor (Example 4b) for 48 hours and non-GC B cells or GC B cells were identified using flow cytometry (FIG. 1).

[2] = biological target: T1, Trx-6×His-BCL6 (human BCL6 BTB domain covering amino-acid sequence 5-129) (Homo sapiens, UniProt P41182); test: HTRF assay (BCL6 / BCOR peptide); assay type: binding; settings: 1 nM Trx-6×His-BCL6, 300 nM BCOR-AF633 peptide, 2 hours incubation at room temperature; for IC50: read-out: HTRF avg pIC50 (converted)
T1 construct: made in house
Experimental: After 2 hours incubation at room temperature the plate was read on a Pherastar FSX (BMG Labtech) plate reader equipped with 337 nm laser excitation filter, a first emission filter at 620 nm and a second emission filter at 665 nm. The % inhibition at each concentration was calculated by normalising FRET ratio to the appropriate high (DMSO with all reagents) and low (DMSO without BCL6) controls.

IC50 [2] [nM] | HTRF avg pIC50 [2] | Compound | also measured
10.5 |  | C[C@H]1CN(c2ncc(F)c(Nc3ccc4c(c3)c3c(c(=O)n4C)OCC(F)(F)[C@H](C4CC4)N3)n2)CCO1 [Example 13p08, (S)-2-cyclopropyl-3,3-difluoro-10-((5-fluoro-2-((S)-2-methylmorpholino)pyrimidin-4-yl)amino)-7-methyl-1,2,3,4-tetrahydro-[1,4]oxazepino[2,3-c]quinolin-6(7H)-one] | 
7.24 |  | Cn1c(=O)c2c(c3cc(Nc4nc(N5C[C@H]6CC[C@@H](C5)O6)ncc4F)ccc31)N[C@@H](C1CC1)C(F)(F)CO2 [Example 13p11, (S)-10-((2-((1R,5S)-8-oxa-3-azabicyclo[3.2.1]octan-3-yl)-5-fluoropyrimidin-4-yl)amino)-2-cyclopropyl-3,3-difluoro-7-methyl-1,2,3,4-tetrahydro-[1,4]oxazepino[2,3-c]quinolin-6(7H)-one] | 
19.1 |  | CN(C)c1ncc(F)c(Nc2ccc3c(c2)c2c(c(=O)n3C)OCC(F)(F)[C@H](C3CC3)N2)n1 [Example 13p12, (S)-2-cyclopropyl-10-((2-(dimethylamino)-5-fluoropyrimidin-4-yl)amino)-3,3-difluoro-7-methyl-1,2,3,4-tetrahydro-[1,4]oxazepino[2,3-c]quinolin-6(7H)-one] | 
 | 8.22 | (S)-10-((5-chloro-2-((3R,4S)-3-(hydroxymethyl)-4-methylpyrrolidin-1-yl)pyrimidin-4-yl)amino)-2-cyclopropyl-3,3-difluoro-7-methyl-1,2,3,4-tetrahydro-[1,4]oxazepino[2,3-c]quinolin-6(7H)-one:(S)-10-((5-chloro-2-((3S,4R)-3-(hydroxymethyl)-4-methylpyrrolidin-1-yl)pyrimidin-4-yl)amino)-2-cyclopropyl-3,3-difluoro-7-methyl-1,2,3,4-tetrahydro-[1,4]oxazepino[2,3-c]quinolin-6(7H)-one (1:1) [Example 11j] | 
 | 8.28 | (S)-10-((5-chloro-2-((3R,5R)-3-fluoro-5-hydroxypiperidin-1-yl)pyrimidin-4-yl)amino)-2-cyclopropyl-3,3-difluoro-7-methyl-1,2,3,4-tetrahydro-[1,4]oxazepino[2,3-c]quinolin-6(7H)-one:(S)-10-((5-chloro-2-((3S,5S)-3-fluoro-5-hydroxypiperidin-1-yl)pyrimidin-4-yl)amino)-2-cyclopropyl-3,3-difluoro-7-methyl-1,2,3,4-tetrahydro-[1,4]oxazepino[2,3-c]quinolin-6(7H)-one(1:1) [Example 11g] | 
 | 7.33 | (S)-10-((5-chloro-2-((R)-4,4-difluoro-3-methylpiperidin-1-yl)pyrimidin-4-yl)amino)-2-cyclopropyl-3,3-difluoro-7-methyl-1,2,3,4-tetrahydro-[1,4]oxazepino[2,3-c]quinolin-6(7H)-one or (S)-10-((5-chloro-2-((S)-4,4-difluoro-3-methylpiperidin-1-yl)pyrimidin-4-yl)amino)-2-cyclopropyl-3,3-difluoro-7-methyl-1,2,3,4-tetrahydro-[1,4]oxazepino[2,3-c]quinolin-6(7H)-one [Example 14b] | 

Compound | IC50 [2] [nM] | HTRF avg pIC50 [2] | also measured
Cn1c(=O)c2c(c3cc(Nc4ccnc(F)c4Cl)ccc31)N[C@@H](C1CC1)C(F)(F)CO2 [Example 4b, (S)-10-((3-chloro-2-fluoropyridin-4-yl)amino)-2-cyclopropyl-3,3-difluoro-7-methyl-1,2,3,4-tetrahydro-[1,4]oxazepino[2,3-c]quinolin-6(7H)-one] | 6.31 |  | numbers of GC B cells as determined by expression of the lineage markers GL7 and CD95 ([1]; spleen cell cultures, 48 hours, at 10 μM (FIG. 4)): decreased; BCL6 expression in non-GC B cells (GeoMFI, flow cytometry) ([1]; splenocytes of CFA-immunised C57BL/6 mice, activated 48 hours with αCD40 + IL-4, various concentrations (FIG. 2)): did not result in a reduction; Blimp expression by GC B cells (GeoMFI, flow cytometry) ([1]; splenocytes of CFA-immunised C57BL/6 mice, activated 48 hours with αCD40 + IL-4, various concentrations (FIG. 3)): increase
(S)-10-((5-chloro-2-((R)-3,3-difluoro-5-hydroxypiperidin-1-yl)pyrimidin-4-yl)amino)-2-cyclopropyl-3,3-difluoro-7-methyl-1,2,3,4-tetrahydro-[1,4]oxazepino[2,3-c]quinolin-6(7H)-one:(S)-10-((5-chloro-2-((S)-3,3-difluoro-5-hydroxypiperidin-1-yl)pyrimidin-4-yl)amino)-2-cyclopropyl-3,3-difluoro-7-methyl-1,2,3,4-tetrahydro-[1,4]oxazepino[2,3-c]quinolin-6(7H)-one (1:1) [Example 12e] |  | 8.32 | 
